Measured values: patent US9790228B2, “Heterocyclic kinase inhibitors” (Intellikine LLC, priority 2008, dated 2017)
pEC50, pIC50: −log10 of the molar value.

Assays:
[1] = target: p110δ/p85α (Homo sapiens (Human), UniProt O00329); experiment: PI3K δ inhibition assay (TLC lipid kinase or HTRF); assay type: biochemical
Method: (§1) Class I PI3-Ks can be either purchased (p110α/p85α, p110β/p85α, p110δ/p85α from Upstate, and p110γ from Sigma) or expressed as previously described (Knight et al., 2004). IC50 values are measured using either a standard TLC assay for lipid kinase activity (described below) or a high-throughput membrane capture assay. Kinase reactions are performed by preparing a reaction mixture containing kinase, inhibitor (2% DMSO final concentration), buffer (25 mM HEPES, pH 7.4, 10 mM MgCl2), and freshly sonicated phosphatidylinositol (100 μg/ml). Reactions are initiated by the addition of ATP containing 10 μCi of γ-32P-ATP to a final concentration 10 or 100 μM and allowed to proceed for 5 minutes at room temperature. For TLC analysis, reactions are then terminated by the addition of […] 1N HCl followed by 160 μl CHCl3:MeOH (1:1). The biphasic mixture is vortexed, briefly centrifuged, and the organic phase is transferred to a new tube using a gel loading pipette tip precoated with CHCl3. This extract is spotted on TLC plates and developed for 3-4 hours in a 65:35 solution of n-propanol:1M acetic acid. The TLC plates are then dried, exposed to a phosphorimager screen (Storm, Amersham), and quantitated. For each compound, kinase activity is measured at 10-12 inhibitor concentrations representing two-fold dilutions from the highest concentration tested (typically, 200 μM).
(§2) Other commercial kits or systems for assaying PI3-K activities are available. The commercially available kits or systems can be used to screen for inhibitors and/or agonists of PI3-Ks including but not limited to PI 3-Kinase α, β, δ, and γ. Anr exemplary system is PI3-Kinase (human) HTRF™ Assay from Upstate. […] Briefly, the assay is a time resolved FRET assay that indirectly measures PIP3 product formed by the activity of a PI3-K. The kinase reaction is performed in a microtitre plate (e.g., a 384 well microtitre plate). The total reaction volume is approximately 20 ul per well. In the first step, each well receives 2 ul of test compound in 20% dimethylsulphoxide resulting in a 2% DMSO final concentration. Next, approximately 14.5 ul of a kinase/PIP2 mixture (diluted in 1× reaction buffer) is added per well for a final concentration of 0.25-0.3 ug/ml kinase and 10 uM PIP2. The plate is sealed and incubated for 15 minutes at room temperature. To start the reaction, 3.5 ul of ATP (diluted in 1× reaction buffer) is added per well for a final concentration of 10 uM ATP. The plate is sealed and incubated for 1 hour at room temperature. The reaction is stopped by adding 5 ul of Stop Solution per well and then 5 ul of Detection Mix is added per well. The plate is sealed, incubated for 1 hour at room temperature, and then read on an appropriate plate reader. Data is analyzed and IC50s are generated using GraphPad Prism 5.

[2] = target: p110γ (Homo sapiens (Human), UniProt P48736); experiment: PI3K γ inhibition assay (TLC lipid kinase or HTRF); assay type: biochemical
Method: as §1, §2

[3] = test system: Balb/c splenic B cells; experiment: B cell activation and proliferation assay (Alamar Blue); assay type: cell-based, mouse; details: Mus musculus, B-cell
Method: The ability of one or more subject compounds to inhibit B cell activation and proliferation is determined according to standard procedures known in the art. For example, an in vitro cellular proliferation assay is established that measures the metabolic activity of live cells. The assay is performed in a 96 well microtiter plate using Alamar Blue reduction. Balb/c splenic B cells are purified over a Ficoll-Paque™ PLUS gradient followed by magnetic cell separation using a MACS B cell Isolation Kit (Miletenyi). Cells are plated in 90 ul at 50,000 cells/well in B Cell Media (RPMI+10% FBS+Penn/Strep+50 uM bME+5 mM HEPES). A compound disclosed herein is diluted in B Cell Media and added in a 10 ul volume. Plates are incubated for 30 min at 37 C and 5% CO2 (0.2% DMSO final concentration). A 50 ul B cell stimulation cocktail is then added containing either 10 ug/ml LPS or 5 ug/ml F(ab′)2 Donkey anti-mouse IgM plus 2 ng/ml recombinant mouse IL4 in B Cell Media. Plates are incubated for 72 hours at 37° C. and 5% CO2. A volume of 15 uL of Alamar Blue reagent is added to each well and plates are incubated for 5 hours at 37 C and 5% CO2. Alamar Blue fluoresce is read at 560Ex/590Em, and IC50 or EC50 values are calculated using GraphPad Prism 5.

[4] = target: p110β/p85α (Homo sapiens, UniProt P42338); experiment: PI3K β inhibition assay (TLC lipid kinase or HTRF); assay type: biochemical; details: read-out: PI3K β IC50
Method: as §1, §2

[5] = target: p110α/p85α (Homo sapiens (Human), UniProt P42336); experiment: PI3K α inhibition assay (TLC lipid kinase or HTRF); assay type: biochemical
Method: as §1, §2

p110α/p85α, sequence (P42336 whole entry): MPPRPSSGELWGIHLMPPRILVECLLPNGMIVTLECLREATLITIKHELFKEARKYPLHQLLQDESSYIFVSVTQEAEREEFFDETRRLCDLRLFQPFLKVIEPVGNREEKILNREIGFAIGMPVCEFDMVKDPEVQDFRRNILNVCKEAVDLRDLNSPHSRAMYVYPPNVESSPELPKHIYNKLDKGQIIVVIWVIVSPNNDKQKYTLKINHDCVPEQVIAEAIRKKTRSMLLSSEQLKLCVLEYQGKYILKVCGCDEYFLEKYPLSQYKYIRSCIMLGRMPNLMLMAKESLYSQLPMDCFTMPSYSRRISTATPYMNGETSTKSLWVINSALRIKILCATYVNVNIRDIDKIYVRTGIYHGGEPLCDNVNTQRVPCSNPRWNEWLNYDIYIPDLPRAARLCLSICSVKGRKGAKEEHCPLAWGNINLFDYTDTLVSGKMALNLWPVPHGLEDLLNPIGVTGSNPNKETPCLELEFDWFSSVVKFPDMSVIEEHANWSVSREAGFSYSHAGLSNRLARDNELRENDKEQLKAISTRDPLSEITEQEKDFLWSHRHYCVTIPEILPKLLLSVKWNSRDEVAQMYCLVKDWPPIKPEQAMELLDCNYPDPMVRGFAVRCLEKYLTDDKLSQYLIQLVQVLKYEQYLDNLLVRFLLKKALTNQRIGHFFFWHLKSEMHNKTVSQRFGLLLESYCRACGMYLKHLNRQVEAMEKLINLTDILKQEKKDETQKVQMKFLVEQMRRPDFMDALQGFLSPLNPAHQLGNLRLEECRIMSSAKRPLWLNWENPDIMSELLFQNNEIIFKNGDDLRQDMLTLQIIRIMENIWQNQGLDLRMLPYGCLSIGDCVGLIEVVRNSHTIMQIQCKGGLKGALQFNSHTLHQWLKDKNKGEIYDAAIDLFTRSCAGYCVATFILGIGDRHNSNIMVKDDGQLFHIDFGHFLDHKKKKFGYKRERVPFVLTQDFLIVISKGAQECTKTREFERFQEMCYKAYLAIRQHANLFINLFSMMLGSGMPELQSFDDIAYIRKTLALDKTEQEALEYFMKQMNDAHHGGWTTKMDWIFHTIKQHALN
p110α/p85α, sequence (P27986 whole entry partner): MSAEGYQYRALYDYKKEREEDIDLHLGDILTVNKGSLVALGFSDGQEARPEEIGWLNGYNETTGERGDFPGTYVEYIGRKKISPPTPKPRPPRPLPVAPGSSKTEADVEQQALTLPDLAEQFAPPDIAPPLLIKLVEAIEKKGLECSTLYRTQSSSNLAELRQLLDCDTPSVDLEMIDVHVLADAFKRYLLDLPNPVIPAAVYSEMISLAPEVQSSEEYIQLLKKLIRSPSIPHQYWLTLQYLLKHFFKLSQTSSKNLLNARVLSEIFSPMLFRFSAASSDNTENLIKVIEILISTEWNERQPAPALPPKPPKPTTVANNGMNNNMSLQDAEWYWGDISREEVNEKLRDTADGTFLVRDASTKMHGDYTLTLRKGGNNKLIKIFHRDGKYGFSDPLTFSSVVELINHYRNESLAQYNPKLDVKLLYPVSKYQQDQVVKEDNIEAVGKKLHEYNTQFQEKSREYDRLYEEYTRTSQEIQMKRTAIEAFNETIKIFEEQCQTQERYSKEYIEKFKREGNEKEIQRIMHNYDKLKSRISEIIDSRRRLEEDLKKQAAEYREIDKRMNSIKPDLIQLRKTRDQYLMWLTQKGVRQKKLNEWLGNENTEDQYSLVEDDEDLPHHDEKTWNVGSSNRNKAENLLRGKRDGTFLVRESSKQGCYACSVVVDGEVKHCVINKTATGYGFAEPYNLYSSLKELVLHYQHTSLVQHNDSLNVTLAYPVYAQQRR
p110δ/p85α, sequence (O00329 whole entry): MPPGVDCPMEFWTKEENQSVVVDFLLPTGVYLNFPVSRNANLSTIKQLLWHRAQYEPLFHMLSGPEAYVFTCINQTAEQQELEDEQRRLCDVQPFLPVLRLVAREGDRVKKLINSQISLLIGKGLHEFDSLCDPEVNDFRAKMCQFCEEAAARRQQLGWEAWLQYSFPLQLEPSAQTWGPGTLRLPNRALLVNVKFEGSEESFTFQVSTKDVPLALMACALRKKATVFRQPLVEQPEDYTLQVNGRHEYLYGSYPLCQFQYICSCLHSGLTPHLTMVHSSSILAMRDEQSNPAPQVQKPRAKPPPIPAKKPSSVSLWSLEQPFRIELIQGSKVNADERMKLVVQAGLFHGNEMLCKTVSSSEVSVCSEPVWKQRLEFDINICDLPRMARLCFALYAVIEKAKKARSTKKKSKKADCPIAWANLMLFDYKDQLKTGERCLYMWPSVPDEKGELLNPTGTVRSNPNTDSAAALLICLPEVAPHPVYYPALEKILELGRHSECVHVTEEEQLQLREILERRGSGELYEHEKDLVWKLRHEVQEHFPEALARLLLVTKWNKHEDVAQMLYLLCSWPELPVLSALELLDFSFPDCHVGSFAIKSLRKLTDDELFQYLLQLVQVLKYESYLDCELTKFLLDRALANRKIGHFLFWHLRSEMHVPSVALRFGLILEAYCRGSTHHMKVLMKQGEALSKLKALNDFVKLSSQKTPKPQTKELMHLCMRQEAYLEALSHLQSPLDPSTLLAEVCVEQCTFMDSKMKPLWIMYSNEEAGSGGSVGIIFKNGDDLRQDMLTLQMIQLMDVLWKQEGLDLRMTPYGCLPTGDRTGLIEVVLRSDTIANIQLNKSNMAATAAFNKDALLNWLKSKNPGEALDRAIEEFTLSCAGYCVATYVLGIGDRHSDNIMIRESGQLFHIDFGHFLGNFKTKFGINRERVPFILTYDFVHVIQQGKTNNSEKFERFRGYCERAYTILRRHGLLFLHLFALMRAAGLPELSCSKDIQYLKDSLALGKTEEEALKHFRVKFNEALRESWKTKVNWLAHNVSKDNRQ
p110δ/p85α, sequence (P27986 whole entry partner): as the sequence (P27986 whole entry partner) above
p110β/p85α, sequence (P42338 whole entry, looked up): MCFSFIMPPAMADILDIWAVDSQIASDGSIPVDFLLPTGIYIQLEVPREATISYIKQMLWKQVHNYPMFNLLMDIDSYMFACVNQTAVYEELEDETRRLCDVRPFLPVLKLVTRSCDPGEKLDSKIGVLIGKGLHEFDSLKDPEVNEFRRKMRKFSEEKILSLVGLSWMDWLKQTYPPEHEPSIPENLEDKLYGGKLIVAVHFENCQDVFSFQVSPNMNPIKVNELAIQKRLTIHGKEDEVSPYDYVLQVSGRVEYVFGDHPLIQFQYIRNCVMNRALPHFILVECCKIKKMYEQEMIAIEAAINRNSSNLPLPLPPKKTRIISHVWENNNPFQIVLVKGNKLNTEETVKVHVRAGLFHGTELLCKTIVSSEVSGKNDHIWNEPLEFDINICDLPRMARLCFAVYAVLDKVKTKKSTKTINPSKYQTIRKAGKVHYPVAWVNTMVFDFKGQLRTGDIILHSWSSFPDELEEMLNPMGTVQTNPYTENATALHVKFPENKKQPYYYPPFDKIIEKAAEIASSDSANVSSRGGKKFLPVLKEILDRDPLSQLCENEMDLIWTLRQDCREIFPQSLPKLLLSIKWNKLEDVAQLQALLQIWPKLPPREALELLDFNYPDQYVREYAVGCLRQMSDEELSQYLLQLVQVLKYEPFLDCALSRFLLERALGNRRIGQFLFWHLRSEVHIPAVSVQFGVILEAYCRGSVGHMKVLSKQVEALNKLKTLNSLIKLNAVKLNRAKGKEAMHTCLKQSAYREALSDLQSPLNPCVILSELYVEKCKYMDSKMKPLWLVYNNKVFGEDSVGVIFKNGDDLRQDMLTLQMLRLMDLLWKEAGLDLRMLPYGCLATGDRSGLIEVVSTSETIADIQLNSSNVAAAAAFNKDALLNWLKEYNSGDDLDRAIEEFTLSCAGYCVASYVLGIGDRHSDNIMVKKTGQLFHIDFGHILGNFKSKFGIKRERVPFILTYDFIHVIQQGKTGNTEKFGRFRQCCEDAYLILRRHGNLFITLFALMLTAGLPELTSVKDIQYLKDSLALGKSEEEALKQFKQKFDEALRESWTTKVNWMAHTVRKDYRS
p110γ, sequence (P48736 whole entry): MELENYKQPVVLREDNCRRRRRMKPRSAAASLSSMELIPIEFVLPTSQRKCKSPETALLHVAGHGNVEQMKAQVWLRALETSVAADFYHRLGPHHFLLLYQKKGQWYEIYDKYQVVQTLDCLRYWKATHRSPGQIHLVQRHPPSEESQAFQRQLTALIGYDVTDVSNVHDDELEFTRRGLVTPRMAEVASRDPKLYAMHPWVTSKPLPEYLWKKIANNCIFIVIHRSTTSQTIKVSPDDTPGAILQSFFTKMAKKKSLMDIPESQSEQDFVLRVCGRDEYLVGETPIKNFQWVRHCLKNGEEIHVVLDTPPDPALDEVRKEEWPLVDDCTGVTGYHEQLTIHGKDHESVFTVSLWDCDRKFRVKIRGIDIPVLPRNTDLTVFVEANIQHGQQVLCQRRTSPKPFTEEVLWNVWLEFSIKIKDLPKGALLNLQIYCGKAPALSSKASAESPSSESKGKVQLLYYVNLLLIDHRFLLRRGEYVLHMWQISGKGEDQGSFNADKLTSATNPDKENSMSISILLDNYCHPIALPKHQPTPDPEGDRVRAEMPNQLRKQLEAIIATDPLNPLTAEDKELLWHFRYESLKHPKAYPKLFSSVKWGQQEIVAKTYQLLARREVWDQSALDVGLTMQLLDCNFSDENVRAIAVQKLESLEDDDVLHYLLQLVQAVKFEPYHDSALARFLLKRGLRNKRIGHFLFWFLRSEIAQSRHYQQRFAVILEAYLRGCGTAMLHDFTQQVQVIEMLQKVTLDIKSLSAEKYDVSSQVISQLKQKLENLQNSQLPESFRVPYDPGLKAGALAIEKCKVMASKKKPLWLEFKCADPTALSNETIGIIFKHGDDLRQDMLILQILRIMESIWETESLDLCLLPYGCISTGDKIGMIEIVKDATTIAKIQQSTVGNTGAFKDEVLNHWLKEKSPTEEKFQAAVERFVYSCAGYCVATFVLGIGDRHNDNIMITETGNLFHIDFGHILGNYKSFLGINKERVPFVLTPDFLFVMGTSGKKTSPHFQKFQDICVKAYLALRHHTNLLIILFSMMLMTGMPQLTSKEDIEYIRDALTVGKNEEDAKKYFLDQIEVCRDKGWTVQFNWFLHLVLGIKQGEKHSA

Row | SMILES | pIC50 [1] | pIC50 [2] | pEC50 [3] | pIC50 [4] | pIC50 [5]
1 | CC(c1cc2ccccc2nc1N1CCCC1)n1nc(-c2cccc(O)c2)c2c(N)ncnc21 (stereo not shown) [Compound 32] | > 7.00 | 6.00 to 7.00 | > 7.00 |  | 
2 | CC(c1cc2ccccc2nc1-c1ccccc1)n1cnc2c(N)ncnc21 (stereo not shown) [Compound 60] | < 6.00 | < 6.00 | < 6.00 |  | 
3 | Cc1cn(-c2nc3ccccc3cc2Cn2nc(-c3ccc4nc(N)sc4c3)c3c(N)ncnc32)cn1 [Compound 176] | > 7.00 |  | > 7.00 | < 6.00 | 6.00 to 7.00
4 | Cc1ccccc1-c1nc2ccccc2n1CCn1nc(-c2cc(O)cc(F)c2)c2c(N)ncnc21 [Compound 127] | > 7.00 | < 6.00 | 6.00 to 7.00 |  | 
5 | Nc1nc2cc(-c3nn(Cc4cc5ccccc5nc4-c4ccccc4C(F)(F)F)c4ncnc(N)c34)ccc2[nH]1 [Compound 155] | > 7.00 | < 6.00 | 6.00 to 7.00 |  | < 6.00
6 | CC(=O)Nc1nc2ccc(-c3nn(Cc4cc5ccccc5nc4N4CCCC4C)c4ncnc(N)c34)cc2s1 (stereo not shown) [Compound 186] | > 7.00 |  | > 7.00 | < 6.00 | 6.00 to 7.00
7 | Cc1cccc2cc(Cn3nc(-c4cccc(O)c4)c4c(N)ncnc43)c(N3CCCC3)nc12 [Compound 10] | > 7.00 |  | 6.00 to 7.00 | < 6.00 | < 6.00
8 | Cc1nccn1-c1cc2ccccc2cc1Cn1nc(-c2ccc3nc(N)sc3c2)c2c(N)ncnc21 [Compound 175] | > 7.00 |  | > 7.00 | < 6.00 | 6.00 to 7.00
9 | Nc1ncnc2c1c(-c1cccc(O)c1)nn2Cc1cc2ccccc2nc1-c1ccccc1 [Compound 148] | > 7.00 | > 7.00 | > 7.00 | < 6.00 | 
10 | CC1CCCN1c1nc2ccccc2cc1Cn1nc(-c2ccc3nc(N)sc3c2)c2c(N)ncnc21 (stereo not shown) [Compound 187] | > 7.00 |  | > 7.00 | 6.00 to 7.00 | > 7.00
11 | CC(=O)Nc1nc2ccc(-c3nn(Cc4cc5ccccc5nc4N(C)C(C)C)c4ncnc(N)c34)cc2s1 [Compound 151] | > 7.00 | > 7.00 | > 7.00 | 6.00 to 7.00 | 
12 | Nc1ncnc2c1c(-c1cc(O)cc(F)c1)nn2Cc1cc2ccccc2nc1-c1ccccc1C(F)(F)F [Compound 45] | > 7.00 | 6.00 to 7.00 | > 7.00 |  | 
13 | Cc1ccccc1-c1nc2ccccc2cc1Cn1nc(-c2ccc3nc(N)[nH]c3c2)c2c(N)ncnc21 [Compound 182] | > 7.00 | > 7.00 | 6.00 to 7.00 |  | < 6.00
14 | C[C@@H](O)C#Cc1nn(Cc2cc3ccccc3nc2-c2ccccc2C(F)(F)F)c2ncnc(N)c12 [Compound 49] | 6.00 to 7.00 | < 6.00 | 6.00 to 7.00 |  | 
15 | C[C@@H](O)C#Cc1nn(Cc2cc3ccccc3nc2N2CCCC2)c2ncnc(N)c12 [Compound 48] | 6.00 to 7.00 | < 6.00 | 6.00 to 7.00 |  | 
16 | Nc1ncnc2c1c(-c1cc(O)cc(F)c1)nn2Cc1cc2ccccc2nc1CN1CCCC1 [Compound 174] | > 7.00 |  | > 7.00 | > 7.00 | < 6.00
17 | NCc1ccc(F)cc1-c1nc2ccccc2cc1Cn1nc(-c2cc(O)cc(F)c2)c2c(N)ncnc21 [Compound 26] | > 7.00 | < 6.00 | > 7.00 |  | 
